Data: the NIST ThermoML archive (doi:10.1007/s10765-006-0063-0)

What was measured:
[1] = 101.33 kPa, Liquid; for speed of sound: Sing-around technique in a fixed-path interferometer
[2] = xn = mol fraction of the nth substance listed; details: 101 kPa, Liquid, Sing-around technique in a fixed-path interferometer

C1COCO1 [1,3-dioxolane]
[1]
Details | mass density [kg/m3] | speed of sound [m/s]
283.15 K | 1077.1 | 1406.3
298.15 K | 1058.8 | 1339.9
313.15 K | 1040.2 | 1271.6

C1COCO1 [1,3-dioxolane] + C1CCCCC1
[2]
Details | speed of sound [m/s]
283.15 K, x1 = 0.1044 | 1322
283.15 K, x1 = 0.2011 | 1317.6
283.15 K, x1 = 0.3005 | 1315.4
283.15 K, x1 = 0.4009 | 1316
283.15 K, x1 = 0.4998 | 1319.7
283.15 K, x1 = 0.602 | 1327.3
283.15 K, x1 = 0.7002 | 1339
283.15 K, x1 = 0.7989 | 1355.7
283.15 K, x1 = 0.8989 | 1377.7
298.15 K, x1 = 0.0998 | 1245.1
298.15 K, x1 = 0.2014 | 1240
298.15 K, x1 = 0.3019 | 1238.7
298.15 K, x1 = 0.4043 | 1240.5
298.15 K, x1 = 0.4993 | 1245.3
298.15 K, x1 = 0.6028 | 1254.2
298.15 K, x1 = 0.6998 | 1266.9
298.15 K, x1 = 0.8003 | 1284.9
298.15 K, x1 = 0.8992 | 1308.9
313.15 K, x1 = 0.1213 | 1172.5
313.15 K, x1 = 0.2006 | 1167.6
313.15 K, x1 = 0.2996 | 1166.6
313.15 K, x1 = 0.3996 | 1168.8
313.15 K, x1 = 0.5009 | 1174.2
313.15 K, x1 = 0.6 | 1183.2
313.15 K, x1 = 0.6979 | 1196.3
313.15 K, x1 = 0.7987 | 1215.2
313.15 K, x1 = 0.8991 | 1240

C1COCO1 [1,3-dioxolane] + c1ccccc1
[2]
Details | speed of sound [m/s]
283.15 K, x1 = 0.1037 | 1373.9
283.15 K, x1 = 0.2005 | 1377.2
283.15 K, x1 = 0.2977 | 1380.5
283.15 K, x1 = 0.4007 | 1383.5
283.15 K, x1 = 0.4995 | 1386.6
283.15 K, x1 = 0.5967 | 1389.7
283.15 K, x1 = 0.6984 | 1393.7
283.15 K, x1 = 0.7942 | 1397.3
283.15 K, x1 = 0.8973 | 1401.7
298.15 K, x1 = 0.1 | 1303.1
298.15 K, x1 = 0.2022 | 1306.8
298.15 K, x1 = 0.3002 | 1310.1
298.15 K, x1 = 0.4021 | 1313.6
298.15 K, x1 = 0.4957 | 1317
298.15 K, x1 = 0.5968 | 1320.7
298.15 K, x1 = 0.6965 | 1325.1
298.15 K, x1 = 0.7985 | 1329.4
298.15 K, x1 = 0.8973 | 1334.2
313.15 K, x1 = 0.1006 | 1233.5
313.15 K, x1 = 0.2 | 1237.2
313.15 K, x1 = 0.2985 | 1240.9
313.15 K, x1 = 0.4136 | 1245.1
313.15 K, x1 = 0.4928 | 1248.1
313.15 K, x1 = 0.5953 | 1252
313.15 K, x1 = 0.6979 | 1256.3
313.15 K, x1 = 0.7968 | 1261.2
313.15 K, x1 = 0.8979 | 1266.3

C1COCCO1 [1,4-dioxane]
[1]
Details | mass density [kg/m3] | speed of sound [m/s]
283.15 K | 1045.2 | 1409.6
298.15 K | 1027.9 | 1343.6
313.15 K | 1011 | 1278.8

C1COCCO1 [1,4-dioxane] + C1CCCCC1
[2]
Details | speed of sound [m/s]
283.15 K, x1 = 0.0502 | 1323.1
283.15 K, x1 = 0.0999 | 1319.7
283.15 K, x1 = 0.1953 | 1315.8
283.15 K, x1 = 0.2899 | 1315.6
283.15 K, x1 = 0.3996 | 1318.4
283.15 K, x1 = 0.5017 | 1324.5
283.15 K, x1 = 0.6007 | 1333.5
283.15 K, x1 = 0.699 | 1346.1
283.15 K, x1 = 0.7956 | 1362.2
283.15 K, x1 = 0.8994 | 1383.9
283.15 K, x1 = 0.9446 | 1394.9
298.15 K, x1 = 0.0535 | 1250
298.15 K, x1 = 0.1053 | 1246.9
298.15 K, x1 = 0.1998 | 1244.4
298.15 K, x1 = 0.3003 | 1245
298.15 K, x1 = 0.4026 | 1248.6
298.15 K, x1 = 0.5006 | 1255.2
298.15 K, x1 = 0.5971 | 1264.5
298.15 K, x1 = 0.7028 | 1278.6
298.15 K, x1 = 0.8089 | 1296.9
298.15 K, x1 = 0.9038 | 1318.4
298.15 K, x1 = 0.9485 | 1330.2
313.15 K, x1 = 0.0497 | 1177.3
313.15 K, x1 = 0.102 | 1174.3
313.15 K, x1 = 0.1944 | 1172.4
313.15 K, x1 = 0.2926 | 1173.7
313.15 K, x1 = 0.3973 | 1178.3
313.15 K, x1 = 0.4969 | 1185.8
313.15 K, x1 = 0.5992 | 1196.7
313.15 K, x1 = 0.6988 | 1211
313.15 K, x1 = 0.7966 | 1229
313.15 K, x1 = 0.8972 | 1251.3
313.15 K, x1 = 0.9505 | 1264.9
